# Measurements: patent US20180230160A1, “2-AMINO-7A-PHENYL-3,4,4A,5,7,7A-HEXAHYDROFURO[3,4-B]PYRIDINES AS BACE1 INHIBITORS” (H. Lundbeck A/S, priority 2015, published 2018)
# pKi: −log10 of the molar value.
# Target: human BACE1 (Homo sapiens, UniProt P56817)
# Assay: BACE1 binding assay (SPA-based radioligand binding)
# Parameters: biotin (biotinylated form); made in house; host or cells: Freestyle HEK293 cells
# Conditions: pH 4.5, 10 nM radioligand, Ki=IC50/(1+L/Kd)
# Procedure, shortened: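 SPA radioligand displacement: biotinylated human BACE1 (HEK293-expressed, 6 nM final) with 10 nM [3H]-isophthalamide ligand and streptavidin beads in 50 mM sodium acetate pH 4.5, 50 mM NaCl, 0.03% Tween-20, 1 h at room temperature. Non-specific binding defined with 1 μM reference inhibitor. IC50 converted to Ki via Cheng-Prusoff using saturation-derived Kd.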
# Sequence of human BACE1 (P56817 46-501): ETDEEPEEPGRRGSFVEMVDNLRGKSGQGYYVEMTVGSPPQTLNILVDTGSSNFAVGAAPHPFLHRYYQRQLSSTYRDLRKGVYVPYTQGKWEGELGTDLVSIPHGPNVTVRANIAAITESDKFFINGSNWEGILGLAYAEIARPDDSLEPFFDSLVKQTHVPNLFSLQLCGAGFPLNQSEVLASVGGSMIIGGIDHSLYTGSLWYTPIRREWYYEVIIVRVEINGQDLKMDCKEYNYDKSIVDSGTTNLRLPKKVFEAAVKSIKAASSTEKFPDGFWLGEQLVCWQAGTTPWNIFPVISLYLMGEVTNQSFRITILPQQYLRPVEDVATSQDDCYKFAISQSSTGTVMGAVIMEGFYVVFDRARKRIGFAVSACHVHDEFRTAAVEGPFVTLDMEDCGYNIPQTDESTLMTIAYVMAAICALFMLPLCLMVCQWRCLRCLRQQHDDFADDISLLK
row,Structure (SMILES),pKi
1,"COc1cnc(C(=O)Nc2ccc(F)c([C@]34COC[C@@]3(F)C[C@@](C)(F)C(N)=N4)c2)cn1 [Example 7, N-(3-((3R,4aR,7aS)-2-amino-3,4a-difluoro-3-methyl-3,4,4a,5,7,7a-hexahydrofuro[3,4-b]pyridin-7a-yl)-4-fluorophenyl)-5-methoxypyrazine-2-carboxamide]",7.96
2,"[2H]C([2H])([2H])Oc1ccc(C(=O)Nc2ccc(F)c([C@]34COC[C@H]3C[C@@](F)(CF)C(N)=N4)c2)nc1 [Example 22, N-(3-((3S,4aS,7aS)-2-amino-3-fluoro-3-(fluoromethyl)-3,4,4a,5-tetrahydrofuro[3,4-b]pyridin-7a-yl)-4-fluorophenyl)-5-(methoxy-d3)picolinamide]",7.29
